Among the data in patent US11447466B2, “Substituted indole compounds useful as inhibitors of TLR7/8/9” (BRISTOL-MYERS SQUIBB COMPANY, priority 2017, dated 2022) are IC50 values, retold here.

Broadly, the pIC50 is the negative decadic logarithm of the IC50, by convention in mol/L. A higher pIC50 goes with a small IC50.

pIC50: −log10 of the molar value.

Common to all, as to assay type: cell-based
One test deals with T1, human TLR8 (Homo sapiens, UniProt Q9NR97).
T1 construct: host or cells: HEK-Blue cells
T1 sequence (Q9NR97 27-1041): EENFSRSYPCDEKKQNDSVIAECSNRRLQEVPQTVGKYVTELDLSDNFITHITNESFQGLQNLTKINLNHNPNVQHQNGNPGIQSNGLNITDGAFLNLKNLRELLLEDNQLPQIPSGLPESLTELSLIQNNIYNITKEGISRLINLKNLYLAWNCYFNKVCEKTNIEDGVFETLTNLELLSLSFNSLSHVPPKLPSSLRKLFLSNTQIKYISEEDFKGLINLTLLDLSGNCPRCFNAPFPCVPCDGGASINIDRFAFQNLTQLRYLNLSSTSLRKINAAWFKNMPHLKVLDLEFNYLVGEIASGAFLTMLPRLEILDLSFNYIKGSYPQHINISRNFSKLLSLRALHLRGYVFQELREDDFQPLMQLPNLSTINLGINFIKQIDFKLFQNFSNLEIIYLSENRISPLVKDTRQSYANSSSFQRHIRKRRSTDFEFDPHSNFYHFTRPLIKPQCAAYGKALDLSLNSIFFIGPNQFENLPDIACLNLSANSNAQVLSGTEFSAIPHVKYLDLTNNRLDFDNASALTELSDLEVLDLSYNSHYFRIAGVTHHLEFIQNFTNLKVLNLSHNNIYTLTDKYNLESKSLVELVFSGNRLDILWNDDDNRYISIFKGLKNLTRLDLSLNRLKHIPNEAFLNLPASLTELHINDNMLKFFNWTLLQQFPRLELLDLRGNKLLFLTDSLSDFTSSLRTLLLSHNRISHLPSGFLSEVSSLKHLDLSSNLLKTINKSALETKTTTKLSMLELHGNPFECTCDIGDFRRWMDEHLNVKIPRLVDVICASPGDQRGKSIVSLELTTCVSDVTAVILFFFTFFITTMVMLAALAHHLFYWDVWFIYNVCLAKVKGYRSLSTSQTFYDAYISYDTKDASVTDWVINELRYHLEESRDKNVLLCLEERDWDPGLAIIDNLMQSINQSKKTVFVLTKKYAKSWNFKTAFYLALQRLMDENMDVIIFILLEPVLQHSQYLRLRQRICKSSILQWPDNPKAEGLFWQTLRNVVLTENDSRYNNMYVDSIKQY
The experiment in a line: TLR8 inhibition reporter assay (HEK-Blue SEAP reporter, R848 stimulation). The note with it: HEK-Blue cells overexpressing human TLR8, SEAP reporter, R848 15.9 μM, 22 hour incubation. In a few lines: (§1)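 Dose–response from 0.05 nM to 50 μM was run in HEK-Blue human TLR7, TLR8 and TLR9 reporter cells. After 30 min at room temperature with compound, ligand was added (TLR7 gardiquimod 7.5 μM; TLR8 R848 15.9 μM; TLR9 ODN2006 5 nM) and SEAP measured next day, at 22 h.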

The target in another test is T2, human TLR7 (Homo sapiens, UniProt Q9NYK1).
T2 construct: host or cells: HEK-Blue cells
T2 sequence (Q9NYK1 27-1049): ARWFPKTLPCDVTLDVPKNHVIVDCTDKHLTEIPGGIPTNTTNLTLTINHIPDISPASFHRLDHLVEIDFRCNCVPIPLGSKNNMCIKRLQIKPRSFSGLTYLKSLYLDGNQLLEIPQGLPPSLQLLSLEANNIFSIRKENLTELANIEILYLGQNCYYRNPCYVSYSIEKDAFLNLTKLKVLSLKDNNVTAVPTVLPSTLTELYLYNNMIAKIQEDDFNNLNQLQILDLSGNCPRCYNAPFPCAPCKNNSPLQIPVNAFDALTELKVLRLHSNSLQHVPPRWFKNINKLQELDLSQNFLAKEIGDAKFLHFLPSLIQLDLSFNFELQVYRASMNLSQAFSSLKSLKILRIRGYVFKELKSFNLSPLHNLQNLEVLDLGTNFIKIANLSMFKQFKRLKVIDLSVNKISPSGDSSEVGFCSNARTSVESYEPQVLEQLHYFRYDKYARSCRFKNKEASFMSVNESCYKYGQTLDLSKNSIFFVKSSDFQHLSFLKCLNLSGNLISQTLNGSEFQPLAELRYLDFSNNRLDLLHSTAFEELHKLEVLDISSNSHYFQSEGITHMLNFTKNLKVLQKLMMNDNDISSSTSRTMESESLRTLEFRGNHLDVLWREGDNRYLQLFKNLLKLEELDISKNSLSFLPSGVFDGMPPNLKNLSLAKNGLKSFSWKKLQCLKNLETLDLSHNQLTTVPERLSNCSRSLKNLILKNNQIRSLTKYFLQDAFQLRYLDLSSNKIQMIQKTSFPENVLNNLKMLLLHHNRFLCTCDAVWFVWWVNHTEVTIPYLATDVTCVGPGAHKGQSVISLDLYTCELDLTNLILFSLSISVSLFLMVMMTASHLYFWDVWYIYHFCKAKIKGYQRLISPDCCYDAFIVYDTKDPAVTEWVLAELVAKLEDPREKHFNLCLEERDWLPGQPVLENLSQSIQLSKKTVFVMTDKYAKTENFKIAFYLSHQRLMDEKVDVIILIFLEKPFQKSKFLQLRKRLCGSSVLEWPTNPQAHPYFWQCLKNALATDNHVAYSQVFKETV
The experiment in a line: TLR7 inhibition reporter assay (HEK-Blue SEAP reporter, gardiquimod stimulation). To be noted: HEK-Blue cells overexpressing human TLR7, SEAP reporter, gardiquimod 7.5 μM, 22 hour incubation. In a few lines:
as §1
(Reporter assays use an easily measured gene product as a stand-in for the process of interest.)

The next test addresses T3, human TLR9 (Homo sapiens, UniProt Q9NR96).
T3 construct: host or cells: HEK-Blue cells
T3 sequence (Q9NR96 26-1032): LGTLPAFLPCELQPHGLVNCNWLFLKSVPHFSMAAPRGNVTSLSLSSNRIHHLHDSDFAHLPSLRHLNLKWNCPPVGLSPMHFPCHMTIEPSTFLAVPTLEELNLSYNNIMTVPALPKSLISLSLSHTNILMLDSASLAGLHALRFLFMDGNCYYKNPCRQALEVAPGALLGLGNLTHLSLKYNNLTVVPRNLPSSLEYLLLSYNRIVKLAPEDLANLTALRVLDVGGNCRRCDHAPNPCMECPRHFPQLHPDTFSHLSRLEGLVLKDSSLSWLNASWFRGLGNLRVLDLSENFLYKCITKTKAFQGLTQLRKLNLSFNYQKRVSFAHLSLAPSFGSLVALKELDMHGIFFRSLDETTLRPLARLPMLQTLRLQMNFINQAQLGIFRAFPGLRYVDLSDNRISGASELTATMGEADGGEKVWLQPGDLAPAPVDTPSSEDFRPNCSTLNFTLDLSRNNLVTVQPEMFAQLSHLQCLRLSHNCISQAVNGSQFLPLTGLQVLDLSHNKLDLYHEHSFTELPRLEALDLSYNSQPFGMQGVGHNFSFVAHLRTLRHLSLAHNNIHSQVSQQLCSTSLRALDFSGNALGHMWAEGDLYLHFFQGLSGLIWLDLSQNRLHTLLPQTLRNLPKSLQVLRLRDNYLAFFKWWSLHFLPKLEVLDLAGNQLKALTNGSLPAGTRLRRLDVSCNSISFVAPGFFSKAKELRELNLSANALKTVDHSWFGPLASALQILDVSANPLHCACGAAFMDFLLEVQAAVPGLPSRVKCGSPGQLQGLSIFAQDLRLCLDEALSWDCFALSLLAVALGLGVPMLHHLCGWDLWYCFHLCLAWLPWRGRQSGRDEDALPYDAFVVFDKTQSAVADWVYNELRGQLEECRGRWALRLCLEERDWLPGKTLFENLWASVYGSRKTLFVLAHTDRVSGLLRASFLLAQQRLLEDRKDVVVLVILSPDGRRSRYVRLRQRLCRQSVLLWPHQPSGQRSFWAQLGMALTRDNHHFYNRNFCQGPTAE
The experiment in a line: TLR9 inhibition reporter assay (HEK-Blue SEAP reporter, ODN2006 stimulation). The note with it: HEK-Blue cells overexpressing human TLR9, SEAP reporter, ODN2006 5 nM, 22 hour incubation. In a few lines:
as §1

`CNCCN1CCC(c2ccc3[nH]c(-c4ccc(=O)n(C)c4)c(C(C)C)c3c2)CC1` [Example 172, 5-(3-isopropyl-5-(1-(2-(methylamino)ethyl)piperidin-4-yl)-1H-indol-2-yl)-1-methylpyridin-2(1H)-one]: the pIC50 is 8.16 against human TLR8, 7.52 at human TLR7 and 6.82 at human TLR9.
For `CCCN1CCC(c2ccc3[nH]c(-c4cc(-c5cccc(OC)c5)c(=O)n(C)c4)c(C(C)C)c3c2)CC1` [Example 340, 5-(3-isopropyl-5-(1-propylpiperidin-4-yl)-1H-indol-2-yl)-3-(3-methoxyphenyl)-1-methylpyridin-2(1H)-one] the same measures were 7.78, 8.35 and 5.92.
For `Cc1c(-c2[nH]c3ccc(C4CCNCC4)cc3c2C(C)C)nn(C)c(=O)c1C` [Example 17, 6-(3-isopropyl-5-(piperidin-4-yl)-1H-indol-2-yl)-2,4,5-trimethylpyridazin-3(2H)-one] the same measures were 7.91, 7.68 and 6.22.
For `Cc1c(-c2[nH]c3ccc(C4CCN(C(C)C)CC4)cc3c2C(C)C)cn(C)c(=O)c1Cl` [Example 238, 3-chloro-5-(3-isopropyl-5-(1-isopropylpiperidin-4-yl)-1H-indol-2-yl)-1,4-dimethylpyridin-2(1H)-one] the same measures were 7.93, 8.14 and 5.08.
Turning to `COCc1cc(-c2[nH]c3ccc(C4CCN(CC(C)(C)O)CC4)cc3c2C(C)C)cn(C)c1=O` [Example 323, 5-(5-(1-(2-hydroxy-2-methylpropyl)piperidin-4-yl)-3-isopropyl-1H-indol-2-yl)-3-(methoxymethyl)-1-methylpyridin-2(1H)-one], the pIC50 at human TLR8 is 7.86; against human TLR7 it was 7.74; against human TLR9 it was 5.14.
With `Cc1nc(-c2[nH]c3ccc(C4CCN(C)CC4)cc3c2C(C)C)cn(C)c1=O` [Example 183, 5-(3-isopropyl-5-(1-methylpiperidin-4-yl)-1H-indol-2-yl)-1,3-dimethylpyrazin-2(1H)-one], the results for the negative-log IC50 (pIC50) against human TLR8, at human TLR7 and against human TLR9 were 7.50, 7.55 and 5.02, respectively.
As to `CCCN1CCC(c2ccc3[nH]c(-c4cc(-c5ccc(N6CCOCC6)nc5)c(=O)n(C)c4)c(C(C)C)c3c2)CC1` [Example 330, 5-(3-isopropyl-5-(1-propylpiperidin-4-yl)-1H-indol-2-yl)-1-methyl-6′-morpholino-[3,3′-bipyridin]-2(1H)-one], the values for the pIC50 against human TLR8, on human TLR7 and against human TLR9 were 6.36, 8.11 and 6.15, respectively.
For `CCn1cc(-c2[nH]c3ccc(C4CCNCC4)cc3c2C(C)C)cc(Cl)c1=O` [Example 32, 3-chloro-1-ethyl-5-(3-isopropyl-5-(piperidin-4-yl)-1H-indol-2-yl) pyridin-2(1H)-one] the same measures were 7.76, 8.74 and 5.97.
For `Cc1cc(-c2[nH]c3ccc(C4CCN(CCC(N)=O)CC4)cc3c2C(C)C)cn(C)c1=O` [Example 82, 3-(4-(2-(1,5-dimethyl-6-oxo-1,6-dihydropyridin-3-yl)-3-isopropyl-1H-indol-5-yl)piperidin-1-yl)propanamide] the same measures were 7.92, 8.02 and 6.10.
Turning to `Cc1cc(-c2[nH]c3ccc(C4CCN(CCC#N)CC4)cc3c2C(C)C)cn(C)c1=O` [Example 76, 3-(4-(2-(1,5-dimethyl-6-oxo-1,6-dihydropyridin-3-yl)-3-isopropyl-1H-indol-5-yl)piperidin-1-yl)propanenitrile], the negative-log IC50 (pIC50) against human TLR8 is 8.33; against human TLR7, 8.36; at human TLR9, 4.70.
For `CCn1cc(-c2[nH]c3ccc(C4CCN(CC(=O)N(C)C)CC4)cc3c2C(C)C)c(C)c(C)c1=O` [Example 136, 2-(4-(2-(1-ethyl-4,5-dimethyl-6-oxo-1,6-dihydropyridin-3-yl)-3-isopropyl-1H-indol-5-yl)piperidin-1-yl)-N,N-dimethylacetamide] the same measures were 7.87, 7.92 and 5.71.
Regarding `Cc1c(-c2[nH]c3ccc(C4CCNCC4)cc3c2C(C)C)cn(C)c(=O)c1N` [Example 19, 3-amino-5-(3-isopropyl-5-(piperidin-4-yl)-1H-indol-2-yl)-1,4-dimethylpyridin-2(1H)-one], the pIC50 at human TLR8 is 7.40; on human TLR7 it was 7.59; against human TLR9 it was 6.10.
For `CNC(=O)CN1CCC(c2ccc3[nH]c(-c4cc(OC)c(=O)n(C)c4)c(C(C)C)c3c2)CC1` [Example 129, 2-(4-(3-isopropyl-2-(5-methoxy-1-methyl-6-oxo-1,6-dihydropyridin-3-yl)-1H-indol-5-yl)piperidin-1-yl)-N-methylacetamide] the same measures were 8.10, 8.30 and 5.53.
